Assay results published in PMC5612488 (Journal of the American Chemical Society, 2017).
Several values for one entry are separate records, joined by “and”; a condition that tells them apart may be missing. Equal entries are not always repeated.

Tests used:
BoNT/A LC = BoNT/A LC (Clostridium botulinum, UniProt P0DPI0); assay type: biochemical
[1] = system: BoNT/A-mediated cleavage of SNAP-25 in hiPSC-derived neurons; assay type: cell-based, human; settings: for EC50: read-out: EC50, protection of BoNT/A-intoxicated neurons (SNAP-25 cleavage)
[2] = mouse, in vivo, sc, 1 mg/kg
BoNT/A = settings: mouse

Chain of BoNT/A LC (P0DPI0 2-448 limits assumed): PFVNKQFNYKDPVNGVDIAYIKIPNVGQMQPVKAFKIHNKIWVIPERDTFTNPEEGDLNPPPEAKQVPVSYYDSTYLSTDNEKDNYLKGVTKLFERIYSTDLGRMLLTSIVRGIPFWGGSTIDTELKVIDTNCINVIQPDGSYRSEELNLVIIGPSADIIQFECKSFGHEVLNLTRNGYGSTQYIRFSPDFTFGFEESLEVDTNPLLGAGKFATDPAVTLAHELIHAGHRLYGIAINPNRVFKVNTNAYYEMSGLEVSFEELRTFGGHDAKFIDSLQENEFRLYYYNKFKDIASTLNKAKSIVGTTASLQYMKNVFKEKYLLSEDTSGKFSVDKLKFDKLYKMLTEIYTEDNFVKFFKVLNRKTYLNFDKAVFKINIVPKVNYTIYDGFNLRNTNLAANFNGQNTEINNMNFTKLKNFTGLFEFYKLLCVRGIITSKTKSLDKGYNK

Compound | result in cell-based BoNT/A assay [1] | survival of mice treated with complex only without toxin [2] | effect on SNAP-25 cleavage [1] | EC50 [1] [nM] | in vivo efficacy against BoNT/A (BoNT/A) | time to death (BoNT/A; in vivo) | other results
O=C1O[C@H]([C@@H](O)CO)C([O-])=C1O.[Na+] [ASC, Sodium ascorbate, reference compound] |  |  |  |  |  |  | effect on enzyme activity (BoNT/A LC): no effect
c1ccc(-c2ccccn2)nc1 [BIPY, 2,2′-bipyridine] | promising results |  |  |  |  |  | 
CNC(=S)NN=CC=NNC(=S)NC.[Cu+2] [Cu(GTSM), copper (II) glyoxal-bis(4-methylthiosemicarbazone)] |  | complete survival | able to mitigate SNAP-25 cleavage | ~1000 | efficacy against BoNT/A was established | significant increase | delay between +complex and control curves of SNAP-25 cleavage versus time [1]: less than half hour delay; effect of additives NAC, ASC or BSO on complex inhibition of BoNT/A [1]: no observable effect; efficacy after BoNT/A challenge (BoNT/A; in vivo): statistically significant efficacy was not achieved; time to death post-toxin exposure (BoNT/A; in vivo, sc): marked increase
COCCN(CCOC)C(=S)[S-].COCCN(CCOC)C(=S)[S-].[Cu+2] [Cu(MEDTC)2, copper (II) bis(2-methoxyethyl)dithiocarbamate] |  | complete survival | able to mitigate SNAP-25 cleavage | ~1000 | efficacy against BoNT/A was established | significant increase | 
Oc1c(Cl)cc(Cl)c2cccnc12 [DCOQ, 5,7-dichloroquinolin-8-ol] | promising results |  |  |  |  |  | 
CuCl2 [Cu (II)] |  |  |  |  |  |  | Ki (BoNT/A LC): 1560 nM and ~1000 nM; enzyme activity (BoNT/A LC): < 1%; inhibition mechanism (BoNT/A LC): noncompetitive inhibition; inhibitory activity in metal salt screen (BoNT/A LC): significant inhibitory activity; reversibility of inhibitory effect on Vmax (BoNT/A LC): reversible
